Laboratory results: ChEMBL document CHEMBL5725658, “Spirocycle compounds and methods of making and using same” (2018)

Target: T1, Fatty-acid amide hydrolase 1 (Mus musculus, UniProt O08914)
T1 sequence (O08914 whole entry): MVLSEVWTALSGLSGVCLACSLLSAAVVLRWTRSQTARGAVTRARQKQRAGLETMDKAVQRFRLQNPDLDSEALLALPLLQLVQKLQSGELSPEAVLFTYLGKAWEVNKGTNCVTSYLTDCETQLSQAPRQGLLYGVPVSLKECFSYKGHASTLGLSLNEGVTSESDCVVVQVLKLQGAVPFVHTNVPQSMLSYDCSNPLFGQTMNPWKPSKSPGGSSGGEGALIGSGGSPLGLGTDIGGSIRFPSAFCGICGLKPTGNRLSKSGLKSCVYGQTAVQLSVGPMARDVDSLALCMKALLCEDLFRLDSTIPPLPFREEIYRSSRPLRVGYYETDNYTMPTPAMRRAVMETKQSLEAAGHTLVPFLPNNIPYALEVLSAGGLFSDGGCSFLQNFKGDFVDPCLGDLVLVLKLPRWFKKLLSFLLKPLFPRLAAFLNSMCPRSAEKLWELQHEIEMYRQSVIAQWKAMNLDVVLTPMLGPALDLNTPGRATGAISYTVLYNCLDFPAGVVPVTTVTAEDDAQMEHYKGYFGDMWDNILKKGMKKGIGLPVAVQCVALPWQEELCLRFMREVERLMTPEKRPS
Assay: In Vitro Competitive Activity-Based Protein Profiling: Proteomes (mouse brain membrane fraction or cell lysates) (50 μL, 1.0 mg/mL total protein concentration) were preincubated with varying concentrations of inhibitors at 37° C. After 30 min, FP¿Rh (1.0 μL, 50 μM in DMSO) was added and the mixture was incubated for another 30 min at 37° C. Reactions were quenched with SDS loading buffer (50 μL-4×) and run on SDS-PAGE. Following gel imaging, serine hydrolase activity was determined by measuring fluorescent intensity of gel bands corresponding to MAGL, ABHD6 and FAAH using ImageJ 1.43u software.

IC50: > 1000 nM
Structure (SMILES): O=C(OC(C(F)(F)F)C(F)(F)F)N1CCC2(CCCN2Cc2ccc(OCCN3CCOCC3)cc2)CC1
